From patent US10669242B2 (priority 2016, dated 2020)
Entries after “also recorded” stand apart in the source; their conditions may differ.

Experiments:
C. difficile strain 630 = type: in vivo, Golden Syrian hamsters
[1] = test system: C. difficile toxin (TcdA and TcdB, ~1:1); assay: Murine C. difficile toxin model (intrarectal toxin); type: in vivo, C57BL/6 mice; settings: for IL-1β (% Inhibition) / MPO (% Inhibition): murine C. difficile toxin model, PO, 50 mg/kg body weight
[2] = Plasma concentrations in the murine C. difficile toxin model (LC/MS); type: in vivo; settings: mice, over four hours
Method: We monitored the plasma concentrations of Example 6a following the IR, PO and IP administrations in the murine C. difficile toxin model (Example 63). Plasma concentrations of Example 6a were determined with the use of high pressure liquid chromatography (HPLC) and mass spectrometry (MS) following the administration of Example 6a. Plasma concentration curve of Example 6a was plotted over four hours (FIG. 5). […] It is noted that reduction of the IL-1β and MPO levels as well as improved colon histopathology correlates with the plasma concentrations of Example 6a.
To determine plasma concentration of compounds, blood (˜200 μl) was drawn by retro-orbital bleed, and compound concentration was determined by liquid chromatography (LC)/mass spectrometry (MS)(AB Sciex API-3000 LC/MS/MS system).

[3] = oral (PO), 50 mg/kg, intrarectal toxin 12.5 μg
[4] = intraperitoneal (IP), 50 mg/kg, intrarectal toxin 12.5 μg
[5] = intrarectal (IR) co-administration with toxin (12.5 μg), 25 mg/kg, ~12.5 mg/kg, 4 hours

Compound	survival until Day 10 (C. difficile strain 630; Example 5ae 50 mg/kg PO twice per day for 7 days) [%]	median survival time / protection from mortality (C. difficile strain 630; PO twice per day, Example 5ae 50 mg/kg 7 days, vancomycin 5 mg/kg 5 days)	IL-1β (% Inhibition) [1] [%]	MPO (% Inhibition) [1] [%]	IL-1β in colon tissue [1, 3]	MPO in colon tissue [1, 3]	toxin effect on colon length [1, 3]	plasma concentration ([2]; IP administration, compared to IR)	plasma concentration ([2]; IR administration)	plasma concentration ([2]; PO administration, compared to IR)	IL-1β in colon tissue [1, 4]	MPO in colon tissue [1, 4]	toxin effect on colon length [1, 4]	toxin effect on colon length [1, 5]	toxin-induced IL-1β in colon tissue [1, 5]	toxin-induced MPO in colon tissue [1, 5]	colon histopathology ([1]; oral (PO), intrarectal toxin 12.5 μg)
O=C(Nc1ccc(C(F)(F)F)cn1)c1ccc(CN2C(=O)c3ccc(Cl)cc3NC(=O)[C@H]2Cc2ccccn2)cc1Cl [Example 5ae, (R)-2-Chloro-4-((8-chloro-2,5-dioxo-3-(pyridin-2-ylmethyl)-2,3-dihydro-1H-benzo[e][1,4]diazepin-4(5H)-yl)methyl)-N-(5-(trifluoromethyl)pyridin-2-yl)benzamide]	70	significantly improved the median survival time	81	79	reduced the levels of IL-1β	reduced	reduced the C. difficile toxin-mediated effects on colon length	–	–	–	–	–	–	–	–	–	–
COc1ccc(NC(=O)c2ccc(CN3C(=O)c4ccc(Cl)cc4NC(=O)[C@H]3Cc3ccccn3)cc2F)nc1 [Example 6a, (R)-4-((8-Chloro-2,5-dioxo-3-(pyridin-2-ylmethyl)-2,3-dihydro-1H-benzo[e][1,4]diazepin-4(5H)-yl)methyl)-2-fluoro-N-(5-methoxypyridin-2-yl)benzamide]	–	–	80	81	decreased the C. difficile toxin-induced IL-1β; also recorded: reduced the levels of IL-1β; also recorded: reduced the concentrations of IL-1β	decreased; also recorded: reduced	reduced the C. difficile toxin-mediated effects on colon length; also recorded: effective in reducing the C. difficile toxin effects on colon length	significantly higher plasma concentrations	low plasma concentrations	significantly higher plasma concentrations	decreased the C. difficile toxin-induced IL-1β; also recorded: reduced the concentrations of IL-1β	decreased; also recorded: reduced	reduced the C. difficile toxin-mediated effects on colon length; also recorded: effective in reducing the C. difficile toxin effects on colon length	reduced the C. difficile toxin-mediated effects on colon length	decreased the C. difficile toxin-induced IL-1β	decreased	prevention of tissue damage; also recorded: improved the colon histopathology
